Assay results: patent US5905073A, “Use of 2-hydroxy-5-phenylazobenzoic acid derivatives as colon cancer chemopreventative and chemotherapeutic agents” (priority 1996, dated 1999)
Like-named read-outs stand apart in the source and are kept apart here.

Legend:
[1] = test system: HT-29 cells; assay: Proliferation of HT-29 colon cancer cells, Coulter Counter cell count; format: cell-based, human
Description: Cells were grown in Dulbeccos Modified Eagle medium supplemented with 10% calf serum in an atmosphere of 5% CO2 at 37° C. For growth experiments, cells were seeded into 24-well tissue culture dishes (2 cm^2 /well) at a density of 20,000 cells/well and allowed to attach for 12 hours. The growth medium was then changed and replaced with fresh media containing the test drugs.
The test drugs were dissolved in tissue culture media at the desired concentration and added to individual wells. To determine the number of cells per well, media was removed and the cells washed with phosphate buffered saline solution. The cells were then incubated 15 minutes with trypsin-EDTA solution until detached. The detached cells were then removed from the wells and counted using a Coulter Counter (Model ZBI).
The cell numbers shown in Table I are the average of triplicate culture wells.

[2] = test system: LS174T cells; assay: Dose response growth inhibition of LS174T cells, Sulforhodamine B dye binding assay; format: cell-based, human; settings: Homo sapiens
Description: For dose response studies a sensitive dye binding assay was adapted which allows simultaneous assay of multiple agents and doses in 96-well plates. Cells were plated and allowed to adhere for 24 hours prior to addition of the study drug. Cell densities were then determined 4 days later by fixation of the wells and staining with Sulforhodamine B dye.

[3] = test system: aberrant crypt foci induced by azoxymethane (AOM); assay: Inhibition of aberrant crypt progression / multiplicity, treatment started 24 hours after second AOM injection; format: in vivo, rat
Text: Inhibition of Aberrant Crypt Progression. The data shown in FIG. 4 were collected from the distal 7-8 cm of colonic tissue. At these early time points, this area contained over 80% of the total aberrant crypt foci. An additional study was therefore designed to examine a longer time point, assess the distribution throughout the entire 25 cm of colon and determine if the drug treatment could be initiated after the second AOM injection.
In the second study, groups of 8 animals received two injections of azoxymethane one week apart. Balsalazide treatment was then initiated with one group 24 hours following the second injection. Six weeks later the animals were processed for aberrant crypt analysis. Crypts were stained in situ by rectal instillation of a 0.2% solution of methylene blue for 15 min under anesthesia. Animals were then exsanguinated, colonic tissue from the anus to the caecum was excised, cleaned and fixed for 2 hours in 2% paraformaldehyde. Crypts were counted by viewing at a magnification of 40×. In addition to collecting data on the number of foci, data was also collected on the multiplicity of aberrant crypts per foci.
Previous studies by Pretlow et al (Pretlow et al. (1992) Carcinogenesis 13:1509-1512) have reported on the relationship between aberrant crypt multiplicity and ultimate tumor development using the same carcinogenesis model. […] The data from the above experiment was analyzed to determine the effect of balsalazide on the aberrant crypt multiplicity. […] For foci with 1-3 crypts the mean inhibition ranged from 57-61% (p<0.003, Fischer exact test) while the number of foci with 4 or more crypts was reduced by a mean of 72-76% (p<0.001). When the results on the number of foci containing 4 or more crypts are compared with those containing 3 or less the difference remains statistically significant at the p<0.022 level using the Fischer exact test.

[4] = cited from earlier work
[5] = test system: ulcerative colitis; settings: active and quiescent ulcerative colitis; cited from earlier work
[6] = 6 weeks after second AOM injection, 8 animals

**Q.** For `O=C(O)CCNC(=O)c1ccc(/N=N/c2ccc(O)c(C(=O)O)c2)cc1` [Balsalazide], which “Cell No. on Day 10” value ([1]; HT-29, 10 mM, average of triplicate wells) is on record?
**A.** 47500

**Q.** What about the activity at 10000 µM ([1]; Homo sapiens, HT-29, 240 h, read-out: % of Control Cells) of the same compound?
**A.** 3.6%

**Q.** What about the IC50 ([2]; Table IV, read-out: IC50 for inhibition of human colon cancer cell proliferation) of the same compound?
**A.** 5.29 mM

**Q.** What about the IC50 ([2]; text (FIG. 5), read-out: IC50) of the same compound?
**A.** 5.2 mM

**Q.** And the “mean number of foci, Total” value [3, 6]?
**A.** 63.75

**Q.** And the “mean number of foci, multiplicity 1” value [3, 6]?
**A.** 10.3

**Q.** And the “mean number of foci, multiplicity 2” value [3, 6]?
**A.** 19.1

**Q.** What about the “mean number of foci, multiplicity 3” value [3, 6] of the same compound?
**A.** 15.3

**Q.** And the “mean number of foci, multiplicity 4” value [3, 6]?
**A.** 8.5

**Q.** What about the “mean number of foci, multiplicity 5 to 8” value [3, 6] of the same compound?
**A.** 9.6

**Q.** What about the “inhibition of aberrant crypt foci overall” value ([3]; given beginning 24 hours following second AOM injection, 6 weeks) of the same compound?
**A.** approximately 60%

**Q.** What about the “mean reduction of number of foci with 4 or more crypts” value ([3]; p<0.001) of the same compound?
**A.** 72-76%

**Q.** And the “mean inhibition of foci with 1-3 crypts” value ([3]; p<0.003, Fischer exact test)?
**A.** 57-61%

**Q.** And the “reduction of foci with the greatest number of aberrant crypts relative to foci containing 2-3” value ([3]; rat, in vivo)?
**A.** almost twice

**Q.** And the “gastric or duodenal ulceration” value ([4]; human, in vivo)?
**A.** no evidence of gastric or duodenal ulceration

**Q.** And the gastrointestinal tolerance ([4]; human, in vivo)?
**A.** excellent gastrointestinal tolerance

**Q.** What about the nephrotoxicity ([4]; over 500 patients, some for as long as three years) of the same compound?
**A.** no evidence of nephrotoxicity

**Q.** What about the “anti-inflammatory activity in ulcerative colitis patients” value [5] of the same compound?
**A.** possesses anti-inflammatory activity
